Measurements taken from patent publication US20230059022A1, “PRUSSIAN BLUE ZnO CARBON NANOTUBE COMPOSITE FOR MEASURING HYDROGEN PEROXIDE IN CANCER CELLS” (Middle Tennessee State University, priority 2020, published 2023).
Where “and” joins values, the source holds several entries; their conditions need not be identical. Equal entries are not always repeated.

Tests used:
Format in all cases: cell-based
BT20 cancer cells [1] = assay: SAM CA (chronoamperometry with standard addition) of hydrogen peroxide release from BT20 cells
Description: (§1) BT20 and 4T1 cells were purchased from American Type Culture Collection (ATCC). Both cell lines were maintained in RPMI-1640 medium (Sigma-Aldrich) with 10% Fetal Bovine Serum (FBS) (Gibco) at 37° C. with 5% CO2. The medium was renewed every two days. Well-grown BT20 cells in logarithmic phase were digested by 0.25% (w/v) Trypsin (Fisher Scientific) from the original culture flask and mixed well before being seeded on a 96-well cell culture plate (Denville Scientific) with a density of 5×10^4 cells/mL and incubated with the same full medium at 37° C. with 5% CO2 for 24 h. Cells were then treated with 100 μL of 50 μM doxonibicin (Dox) (Sigma-Aldrich). […]
(§2) Electrochemical activity of the PB/ZnO/COOH-MWNTs was studied using cyclic voltammetry (CV) and chronoamperometry (CA) using AfterMath™ software ver 1.2.5658 and a WaveNano™ potentiostat (Pine Research Instrument Co., Raleigh, N.C., USA). […] The concentrations of hydrogen peroxide in BT20 cancer cells were measured chronoamperometrically, employing the standard addition method (CA SAM). Samples were measured by standard additions of hydrogen peroxide in increasing order to create the calibration curve needed to determine the unknown hydrogen peroxide concentration in the cancer cells. BT20 and 4T1 cancer cells were cultured and the concentration of hydrogen peroxide in the cancer cells analyzed using this sensor. […]

BT20 cancer cells [2] = assay: ELISA (Amplex Red hydrogen peroxide release assay) of BT20 cells; conditions: single replicate wells
Description: BT20 and 4T1 cells were purchased from American Type Culture Collection (ATCC). Both cell lines were maintained in RPMI-1640 medium (Sigma-Aldrich) with 10% Fetal Bovine Serum (FBS) (Gibco) at 37° C. with 5% CO2. The medium was renewed every two days. Well-grown BT20 cells in logarithmic phase were digested by 0.25% (w/v) Trypsin (Fisher Scientific) from the original culture flask and mixed well before being seeded on a 96-well cell culture plate (Denville Scientific) with a density of 5×10^4 cells/mL and incubated with the same full medium at 37° C. with 5% CO2 for 24 h. Cells were then treated with 100 μL of 50 μM doxonibicin (Dox) (Sigma-Aldrich). Cells treated with 100 μL of vehicle (RPMI-1640 medium) only served as a control. The Dox group and control group each had eight replicate wells. After 24 h of incubation, 50 μL of the medium was collected from each well and proceeded for hydrogen peroxide determination.
The hydrogen peroxide release assay was carried on using Amplex™ Red Hydrogen Peroxide/Peroxidase Assay Kit (Invitrogen) according to the instruction. […] After incubation at room temperature in the dark for 30 min, the absorbance of each well at 560 nm of was measured with a CLARIOstar™ microplate reader (BMG Labtech). The concentration of hydrogen peroxide in the sample was calculated according to the standard curve. […]

4T1 cancer cells [3] = assay: SAM CA (chronoamperometry with standard addition) of hydrogen peroxide release from 4T1 cells
Description: as §1, §2

4T1 cancer cells [4] = assay: ELISA (Amplex Red hydrogen peroxide release assay) of 4T1 cells

SMILES: COc1cccc2c1C(=O)c1c(O)c3c(c(O)c1C2=O)C[C@@](O)(C(=O)CO)C[C@@H]3O[C@H]1C[C@H](N)[C@H](O)[C@H](C)O1 [Dox, doxonibicin]
- hydrogen peroxide concentration in Dox-treated BT20 cancer cells (mean) (BT20 cancer cells [1]; 48 h Dox-treated BT20 cells, CA SAM, n=6): 16.0 ± 1.4 µM
- H2O2 from Dox-treated BT20 cancer cells, SAM CA (BT20 cancer cells [1]; BT20 cells, Dox treated, single replicates, SAM CA): 15.1 μM and 15.88 μM (2×) and 17.47 μM (2×) and 14.42 μM
- H2O2 from Dox-treated BT20 cancer cells, ELISA results (BT20 cancer cells [2]): 5.0152 μM and 5.3182 μM (2×) and 5.6212 μM (2×) and 6.0758 μM and 6.9848 μM and 4.4091 μM
- H2O2 from Dox treated 4T1 cancer cells, SAM CA (4T1 cancer cells [3]; 4T1 cells, Dox treated, single replicates, SAM CA): 14 µM and 15.6 µM and 16 µM
- concentration of hydrogen peroxide released in Dox-treated 4T1 cancer cells (mean) (4T1 cancer cells [3]; Dox-treated 4T1 cells, CA SAM, n=3, p=0.0182 vs untreated): 15.2 µM
- H2O2 from Dox treated 4T1 cancer cells, ELISA results (4T1 cancer cells [4]; Dox treated, single replicate wells): 1.9605 µM and 2.0921 µM and 2.4868 µM and 2.75 µM and 2.8816 µM and 2.6184 µM and 3.0132 µM and 1.8289 µM
- difference in hydrogen peroxide between Dox-treated and untreated 4T1 cells by ELISA (4T1 cancer cells [4]; p=0.8932): no statistical difference
